Data: patent US20250064778A1, “GRANULES COMPRISING PROGERININ, AND SACHETS USING SAME” (PRG S&TECH INC., priority 2022, published 2025)

Tests used:
[1] = Stability of spray-dried solid dispersions under storage for 2 weeks; assay type: physicochemical; details: for Appearance / HPLC results Purity / XRPD: open
[2] = Excipient compatibility of progerinin; assay type: physicochemical; details: mixed with HPMC E3, TPGS and potassium sorbate 1:10, 40° C./75% RH, 2 weeks
[3] = cited from earlier work
progerin = details: cited from earlier work
[4] = tested on: progeria-induced animal model; details: cited from earlier work

In the case of `CC1(C)Oc2cc3oc(=O)ccc3cc2C[C@@H]1OC/C=C/c1ccccc1` [progerinin, (7S)-(+)-8,8-dimethyl-7-(3-phenylallyloxy)-7,8-dihydro-6H-pyrano[3,2-g]chromen-2-one], the Appearance ([1]; 25° C./60% RH, after 1 week) is reported as “White”, the “HPLC results Purity” value ([1]; 25° C./60% RH, after 1 week) is reported as 99.85% and the XRPD ([1]; 25° C./60% RH, after 1 week) is reported as “Unchanged”. The “HPLC results Purity” value ([1]; 25° C./60% RH, after 2 weeks) was 99.85%, the XRPD ([1]; 25° C./60% RH, after 2 weeks) was “Unchanged” and the Appearance ([1]; 40° C./75% RH, after 1 week) was “White”. For the same molecule, the “HPLC results Purity” value ([1]; 40° C./75% RH, after 1 week) was 99.85%, the XRPD ([1]; 40° C./75% RH, after 1 week) was “Unchanged” and the “HPLC results Purity” value ([1]; 40° C./75% RH, after 2 weeks) was 99.85%. For the same molecule, the XRPD ([1]; 40° C./75% RH, after 2 weeks) was “Unchanged”, the Initial purity ([1]; initial) was 99.85% and the “compatibility with excipients (effect on the drug)” value [2] was “had no effect on the drug”. The “solubility in aqueous media” value ([3]; BCS criteria) was “low solubility”, the solubility in water [3] was “close to zero” and the suppressing progerin expression (progerin) was “excellent effects of suppressing progerin expression”. The survival period [4] was “prolonging a survival period”.
